Assay results from ChEMBL document CHEMBL1772944, “Homoflavonoid glucosides from Ophioglossum pedunculosum and their anti-HBV activity” (J Nat Prod, 2011).
pIC50: −log10 of the molar value.

Assays:
[1] = Cytotoxicity against human HepG2(2.2.15) cells after 8 days by MTT assay; type: cell-based
Hepatitis B virus = experiment: Antiviral activity against HBV transfected in human HepG2(2.2.15) cells assessed as inhibition of HBsAg secretion by ELISA; type: functional, organism-based

pIC50 (Hepatitis B virus) | SMILES | CC50 at 192 h [1] [µM]
 | O=c1c(CO)c(-c2ccc(O[C@@H]3O[C@H](CO)[C@@H](O)[C@H](O)[C@H]3O)c(O)c2)oc2cc(O)cc(O)c12 | 19.7
 | COc1c(-c2ccc(O[C@@H]3O[C@H](CO)[C@@H](O)[C@H](O)[C@H]3O)c(O)c2)oc2cc(O[C@@H]3O[C@H](CO)[C@@H](O)[C@H](O)[C@H]3O)cc(O)c2c1=O | 7.9
 | COc1c(-c2ccc(O)c(O)c2)oc2cc(O)cc(O)c2c1=O [3-O-METHYLQUERCETIN] | 2.1
4.24 | Nc1ccn([C@@H]2CS[C@H](CO)O2)c(=O)n1 [LAMIVUDINE] | 2400
 | O=c1c2c(oc3cc(O)cc(O)c13)-c1ccc(O)c(O)c1CO2 [OPHIOGLONIN] | 20.4
 | O=c1c(CO)c(-c2ccc(O[C@@H]3O[C@H](CO)[C@@H](O)[C@H](O)[C@H]3O)c(O)c2)oc2cc(O[C@@H]3O[C@H](CO)[C@@H](O)[C@H](O)[C@H]3O[C@@H]3O[C@H](CO)[C@@H](O)[C@H](O)[C@H]3O)cc(O)c12 [PEDUNCULOSUMOSIDE E] | > 100
 | O=c1c(CO)c(-c2ccc(O[C@@H]3O[C@H](CO)[C@@H](O)[C@H](O)[C@H]3O)c(O)c2)oc2cc(O[C@@H]3O[C@H](CO)[C@@H](O)[C@H](O)[C@H]3O)cc(O)c12 [PEDUNCULOSUMOSIDE F] | 56.7
 | O=c1c(O)c(-c2ccc(O)c(O)c2)oc2cc(O)cc(O)c12 [QUERCETIN] | 38.1
 | COc1c(-c2ccc(O)c(O)c2)oc2cc(O[C@@H]3O[C@H](CO)[C@@H](O)[C@H](O)[C@H]3O)cc(O)c2c1=O [TRANSILIN] | 5.4
